Read-outs that look alike come from different tables or passages of the source. No end group written: not given here.
Experiments:
[1] = system: Influenza B/Massachusetts/71 (Yamagata lineage) in MDCK II cells; assay type: cell-based, influenza B virus; conditions: B/Mass, 100 µM peptides, 48 h
[2] = system: Influenza A/Hessen/1/03 (H3N2) in MDCK II cells; assay type: cell-based, influenza A virus; conditions: 100 µM peptides, 48 h
[3] = system: Influenza A/Hamburg/5/09 (H1N1) in MDCK II cells; assay type: cell-based, influenza A virus; conditions: 100 µM peptides, 48 h
[4] = system: Escherichia coli, Staphylococcus aureus, Staphylococcus epidermidis, Pseudomonas aeruginosa (strains 50071 and 1117), Micrococcus luteus, Listeria …; assay: Antibacterial activity, statements for the whole panel of seven strains; assay type: cell-based; conditions: 100 µM, after 48 h, MH II medium, 37 °C, OD600, triplicate
[5] = system: larvae of the greater wax moth (Galleria mellonella); assay: Insecticidal activity, injection into larvae; assay type: in vivo; conditions: G. mellonella larvae, 10 specimens; for Injected larvae surviving: injection of 5 µL of 10 mM stock in DMSO/water, at least 72 h
[6] = system: Influenza B/Malaysia/2506/04 (Victoria lineage) in MDCK II cells; assay type: cell-based, influenza B virus; conditions: B/Mal, 100 µM peptides, 48 h
MDCK II cells = conditions: 48 h; for Normalized data, cell viability: MDCK II, 100 µM peptides, CellTiter-Glo, normalized to DMSO control = 100% viability

| Molecule | Normalized to Aprotinin =1 (protection) ([1]; replicate 1) | Normalized to Aprotinin =1 (protection) ([1]; replicate 2) | Normalized to Aprotinin =1 (protection) ([1]; replicate 3) | Normalized to Aprotinin =1 (protection) ([2]; replicate 1) | Normalized to Aprotinin =1 (protection) ([2]; replicate 2) | Normalized to Aprotinin =1 (protection) ([2]; replicate 3) | Normalized to Aprotinin =1 (protection) ([3]; replicate 1) | Normalized to Aprotinin =1 (protection) ([3]; replicate 2) | Normalized to Aprotinin =1 (protection) ([3]; replicate 3) | Inhibition of bacterial growth, in words [4] | Injected larvae surviving [5] [%] | Normalized to Aprotinin =1 (protection) ([6]; replicate 1) | Normalized to Aprotinin =1 (protection) ([6]; replicate 2) | Normalized to Aprotinin =1 (protection) ([6]; replicate 3) | Larvae killed (mortality) ([5]; injection (peptides 5 µL of 10 mM stock; ethanol control 10 µL), 72 h) [%] | Cytotoxicity (cell viability), in words (MDCK II cells; MDCK II cells, 100 µM, 1% DMSO, CellTiter-Glo luminescence, triplicate) | Normalized data, cell viability (MDCK II cells; replicate 1) [%] | Normalized data, cell viability (MDCK II cells; replicate 2) [%] | Normalized data, cell viability (MDCK II cells; replicate 3) [%] |
| --- | --- | --- | --- | --- | --- | --- | --- | --- | --- | --- | --- | --- | --- | --- | --- | --- | --- | --- | --- |
| INPKLLESL-NH2 (C-terminus assumed) [U-MYRTX-Mrug5b] | 0.0139 | 0.008064 | 0.0246 | 0.06533 | 0.04634 | 0.07887 | 0.02999 | 0.0228 | 0.007801 | no significant inhibition of bacterial growth | 80 | 0.03907 | 0.06268 | 0.0833 |  |  |  |  |  |
| IDSKAIKSLQ-NH2 (C-terminus assumed) [U-MYRTX-Mrub4b/Mrug3a] | 0.03499 | 0.02676 | 0.02366 | 0.06966 | 0.08008 | 0.07436 | 0.02574 | 0.02301 | 0.02813 | no significant inhibition of bacterial growth |  | 0.05327 | 0.08884 | 0.1216 |  |  |  |  |  |
| KDSDSLKSFQ-NH2 (C-terminus assumed) [U-MYRTX-Mrug6a] | 0.007926 | 0.0129 | 0.01821 | 0.08543 | 0.06156 | 0.07217 | 0.02785 | 0.0161 | 0.02305 | no significant inhibition of bacterial growth |  | 0.0613 | 0.07745 | 0.114 |  |  |  |  |  |
| IDPKVLESLL-NH2 (C-terminus assumed) [U-MYRTX-Mrug2b] | 0.01653 | 0.01885 | 0.02698 | 0.0328 | 0.05462 | 0.05537 | 0.05063 | 0.0441 | 0.04545 | no significant inhibition of bacterial growth | 80 | 0.03893 | 0.02764 | 0.1043 |  |  |  |  |  |
| IDPKVLESLA-NH2 (C-terminus assumed) [U-MYRTX-Mrug2a] | 0.01558 | 0.02606 | 0.02908 | 0.06351 | 0.02791 | 0.04387 | -0.00333 | 0.002305 | -0.007789 | no significant inhibition of bacterial growth |  | 0.03996 | 0.0417 | 0.07904 |  |  |  |  |  |
| IDVYFILHLP-NH2 (C-terminus assumed) [U-MYRTX-Mrug4b] | 0.01102 | 0.01257 | 0.01675 | 0.06728 | 0.05537 | 0.07138 | -0.007928 |  | 0.0256 |  |  | 0.03762 | 0.02626 | 0.09882 |  |  |  |  |  |
| aprotinin [reference compound] | 1 | 1 | 1 | 1 | 1 | 1 | 1 | 1 | 1 |  |  | 1 | 1 | 1 |  |  |  |  |  |
| CCO [ethanol, reference compound] |  |  |  |  |  |  |  |  |  |  |  |  |  |  | 70 |  |  |  |  |
| C[C@H](CCC(=O)O)C[C@H](C)C[C@H](C)C(=O)/C=C(\O)[C@H](C)C[C@H](C)C/C=C/[C@@H](C)[C@@H](O)[C@@H](C)[C@@H](O)C[C@@H]1CC[C@@](C)([C@H]2CC[C@@](C)([C@@H](C)O)O2)O1 [Ionomycin, ionomycin, reference compound] |  |  |  |  |  |  |  |  |  |  |  |  |  |  |  | high cytotoxicity | 0.2057 | 0.1877 | 0.1629 |
| IDRSEKTERE-NH2 (C-terminus assumed) [U-MYRTX-Mrub3a] | 0.02341 | 0.02308 | 0.03331 | 0.1064 | 0.05676 | 0.1027 | 0.05191 | 0.05042 | 0.0422 | no significant inhibition of bacterial growth |  | 0.04706 | 0.1383 | 0.1034 |  |  |  |  |  |
| IDSDALKSLQ-NH2 (C-terminus assumed) [U-MYRTX-Mrub4a/Mrug7a] | 0.01827 | 0.02714 | 0.01553 | 0.05779 | 0.05634 | 0.06216 | 0.0395 | 0.05779 | 0.05022 | no significant inhibition of bacterial growth | 80 | 0.06158 | 0.1088 | 0.1041 |  |  |  |  |  |
| IDPKLLESLA-NH2 (C-terminus assumed) [U-MYRTX-Mrub2a] | 0.008341 | 0.1091 | 0.1749 | 0.09958 | 0.07892 | 0.1212 | 0.07403 | 0.07306 | 0.0814 | no significant inhibition of bacterial growth |  | 0.08852 | 0.1729 | 0.1453 |  |  |  |  |  |

— PMC9784689, “Bioactivity Profiling of In Silico Predicted Linear Toxins from the Ants Myrmica rubra and Myrmica ruginodis” (Toxins, 2022)
